PMC12175177 (Frontiers in Pharmacology, 2025)
Values after ≈ are worked out from the molar mass of the structure shown. Counter-ions that a name gives are not always drawn. Like-named read-outs stand apart in the source and are kept apart here.

Experiments:
Assay type in all cases: cell-based
[1] = test system: SARS-CoV-2 Delta variant (SEQ203); conditions: at MNCC, 48 h, 1x
[2] = test system: SARS-CoV-2 A2.5 variant (M2169); conditions: for % inhibition Calu-3 A2.5 MOI 0.01: at MNCC, 48 h, mean 2x
[3] = test system: SARS-CoV-2 A2.5 variant (M2169); conditions: for % inhibition Vero E6 A2.5 MOI 0.01: at MNCC, 48 h, 1x
[4] = test system: SARS-CoV-2 Delta variant (SEQ203); conditions: for % inhibition Vero E6 Delta MOI 0.0001 / % inhibition Vero E6 Delta MOI 0.01: at MNCC, 48 h; for % inhibition Vero E6 Delta MOI 0.0001: 1x; for % inhibition Vero E6 Delta MOI 0.01: mean 2x
SARS-CoV-2 A2.5 variant [5] = experiment: microbe, parasite or virus in culture
SARS-CoV-2 Delta variant [6] = test system: SARS-CoV-2 Delta variant
SARS-CoV-2 Delta variant [7] = test system: SARS-CoV-2 Delta variant; remark: listed apart in the source
SARS-CoV-2 A2.5 variant [8] = test system: SARS-CoV-2 A2.5 variant
[9] = Severe acute respiratory syndrome coronavirus 2, Vero C1008, 72 h, read-out: IC50%
[10] = Severe acute respiratory syndrome coronavirus 2, Vero C1008, 72 h, read-out: IC50% in µg/mL
[11] = Severe acute respiratory syndrome coronavirus 2, Vero C1008, read-out: IC90%
[12] = Severe acute respiratory syndrome coronavirus 2, Vero C1008, read-out: IC90% in µg/mL
[13] = Severe acute respiratory syndrome coronavirus 2, Vero C1008, read-out: IC50 (Figure 4 curve)

C[C@H]1[C@@H](OCc2ccc(C(=O)O)cc2)O[C@@H]2O[C@@]3(C)CC[C@H]4[C@H](C)CC[C@@H]1[C@@]24OO3 [Artelinic Acid (AA), Artelinic Acid]
% inhibition Calu-3 Delta MOI 0.01 [1]: 7%
% inhibition Calu-3 A2.5 MOI 0.01 [2]: 14%
% inhibition Vero E6 A2.5 MOI 0.01 [3]: 0%
% inhibition Vero E6 Delta MOI 0.0001 [4]: 0%
% inhibition Vero E6 Delta MOI 0.01 [4]: 5%

C[C@H]1[C@H](OC(=O)CCC(=O)O)O[C@@H]2O[C@@]3(C)CC[C@H]4[C@H](C)CC[C@@H]1[C@@]24OO3 [Artesunate injection (ASi), Artesunate]
% inhibition Calu-3 A2.5 MOI 0.01 [2]: 10%
% inhibition Vero E6 A2.5 MOI 0.01 [3]: 0%
antiviral inhibition at MOI = 0.00001 [4]: ≥ 20%
less potent against the Delta compared to the A2.5 variant [4]: 20%
% inhibition Vero E6 Delta MOI 0.0001 [4]: 41%
IC50 (SARS-CoV-2 A2.5 variant [5]; [9]): 28.7 µM
IC50 (SARS-CoV-2 A2.5 variant [5]; [10]): 11 µg/mL
IC90 (SARS-CoV-2 A2.5 variant [5]; [11]): 258 µM
IC90 (SARS-CoV-2 A2.5 variant [5]; [12]): 99.3 µg/mL

CC[C@H]1OC(=O)[C@H](C)[C@@H](O[C@H]2C[C@@](C)(OC)[C@@H](O)[C@H](C)O2)[C@H](C)[C@@H](O[C@@H]2O[C@H](C)C[C@H](N(C)C)[C@H]2O)[C@](C)(O)C[C@@H](C)CN(C)[C@H](C)[C@@H](O)[C@]1(C)O [Azithromycin dehydrate (AZH), Azithromycin dehydrate]
% inhibition Calu-3 Delta MOI 0.01 [1]: 2%
% inhibition Calu-3 A2.5 MOI 0.01 [2]: 19%
% inhibition Vero E6 A2.5 MOI 0.01 [3]: 0%
antiviral inhibition at MOI = 0.00001 [4]: ≥ 20%
% inhibition Vero E6 Delta MOI 0.0001 [4]: 25%
% inhibition Vero E6 Delta MOI 0.01 [4]: 8%

CN(C)C(=O)COC(=O)Cc1ccc(OC(=O)c2ccc(NC(=N)N)cc2)cc1 [Camostat mesylate (CAM), Camostat mesylate]
% inhibition Calu-3 Delta MOI 0.01 [1]: 4%
% inhibition Calu-3 A2.5 MOI 0.01 [2]: 16%
% inhibition Vero E6 A2.5 MOI 0.01 [3]: 2%
% inhibition Vero E6 Delta MOI 0.0001 [4]: 0%
% inhibition Vero E6 Delta MOI 0.01 [4]: 7%

CCN(CC)CCCC(C)Nc1ccnc2cc(Cl)ccc12 (stereo not shown) [Chloroquine diphosphate (CQ), Chloroquine diphosphate]
inhibition of A.2.5 infection in Calu-3 compared to camostat (CAM) ([2]; Calu-3): two-fold less
antiviral effect, treatment 1 hour post-infection, Delta (SARS-CoV-2 Delta variant [6]): dose-dependent antiviral effect
effect on viral replication, treatment 1 hour pre-infection, Delta (SARS-CoV-2 Delta variant [6]): did not influence the viral replication
period of most of the inhibitory effect, Delta (SARS-CoV-2 Delta variant [7]): during the adsorption phase
less susceptible to CQ than to PQ, Delta (SARS-CoV-2 Delta variant [7]; Vero-E6, same time interval): 2–4 orders of magnitude
antiviral inhibition at MOI = 0.00001 [4]: ≥ 20%
less potent against the Delta compared to the A2.5 variant [4]: 20%
% inhibition Vero E6 Delta MOI 0.0001 [4]: 44%
IC50 (SARS-CoV-2 A2.5 variant [5]; [9]): 6.3 µM
IC50 (SARS-CoV-2 A2.5 variant [5]; [10]): 2 µg/mL
IC50 (SARS-CoV-2 A2.5 variant [5]; [13]): 6.27 µM
IC90 (SARS-CoV-2 A2.5 variant [5]; [11]): 56.7 µM
IC90 (SARS-CoV-2 A2.5 variant [5]; [12]): 18.1 µg/mL
period of most of the inhibitory effect, A2.5 (SARS-CoV-2 A2.5 variant [8]): during the adsorption phase
less susceptible to CQ than to PQ, A2.5 (SARS-CoV-2 A2.5 variant [8]; Vero-E6, same time interval): 2–4 orders of magnitude

CCN(CCO)CCCC(C)Nc1ccnc2cc(Cl)ccc12 (stereo not shown) [Hydroxychloroquine sulfate (HCQ), Hydroxychloroquine sulfate]
% inhibition Calu-3 Delta MOI 0.01 [1]: 9%
% inhibition Calu-3 Delta MOI 0.01 ([1]; listed as HCQ): effective
% inhibition Calu-3 A2.5 MOI 0.01 [2]: 16%
times more potent against A2.5 than Delta ([3]; Vero-E6): 1.8 times
% inhibition Vero E6 A2.5 MOI 0.01 [3]: 29%
less potent against the Delta compared to the A2.5 variant [4]: 40%
% inhibition Vero E6 Delta MOI 0.0001 [4]: 43%
% inhibition Vero E6 Delta MOI 0.01 [4]: 10%
IC50 (SARS-CoV-2 A2.5 variant [5]; [9]): 12.6 µM
IC50 (SARS-CoV-2 A2.5 variant [5]; [10]): 5.8 µg/mL
IC50 (SARS-CoV-2 A2.5 variant [5]; [13]): 13.3 µM
IC90 (SARS-CoV-2 A2.5 variant [5]; [11]): 113 µM
IC90 (SARS-CoV-2 A2.5 variant [5]; [12]): 38.1 µg/mL

CC[C@H](C)[C@H]1O[C@]2(CC[C@@H]1C)C[C@@H]1C[C@@H](C/C=C(\C)[C@@H](O[C@H]3C[C@H](OC)[C@@H](O[C@H]4C[C@H](OC)[C@@H](O)[C@H](C)O4)[C@H](C)O3)[C@@H](C)/C=C/C=C3\CO[C@@H]4[C@H](O)C(C)=C[C@@H](C(=O)O1)[C@]34O)O2 [Ivermectin (IVM), Ivermectin]
% inhibition Calu-3 Delta MOI 0.01 [1]: 17%
% inhibition Calu-3 A2.5 MOI 0.01 [2]: 15%
% inhibition Vero E6 A2.5 MOI 0.01 [3]: 5%
% inhibition Vero E6 Delta MOI 0.0001 [4]: 19%
% inhibition Vero E6 Delta MOI 0.01 [4]: 11%
IC50% (SARS-CoV-2 A2.5 variant [5]): 63.6 µg/mL (≈ 72.7 µM)
IC50 (SARS-CoV-2 A2.5 variant [5]; read-out: IC50%): 72.7 µM

OC(c1cc(C(F)(F)F)nc2c(C(F)(F)F)cccc12)C1CCCCN1 (stereo not shown) [Mefloquine (MQ), Mefloquine]
% inhibition Calu-3 Delta MOI 0.01 [1]: 0%
% inhibition Calu-3 A2.5 MOI 0.01 [2]: 8%
% inhibition Vero E6 A2.5 MOI 0.01 [3]: 16%
antiviral inhibition at MOI = 0.00001 [4]: ≥ 20%
% inhibition Vero E6 Delta MOI 0.0001 [4]: 45%
% inhibition Vero E6 Delta MOI 0.01 [4]: 6%

COc1c(C)c2c(c(O)c1C/C=C(\C)CCC(=O)O)C(=O)OC2 [Mycophenolic acid (MYC), Mycophenolic acid]
% inhibition Calu-3 Delta MOI 0.01 [1]: 5%
% inhibition Calu-3 A2.5 MOI 0.01 [2]: 11%
% inhibition Vero E6 A2.5 MOI 0.01 [3]: 0%
antiviral inhibition at MOI = 0.00001 [4]: ≥ 20%
% inhibition Vero E6 Delta MOI 0.0001 [4]: 40%
% inhibition Vero E6 Delta MOI 0.01 [4]: 7%

COc1cc(NC(C)CCCN)c2ncccc2c1 (stereo not shown) [Primaquine Phosphate (PQ), Primaquine Phosphate]
% inhibition Calu-3 A2.5 MOI 0.01 [2]: 10%
antiviral effect, treatment 1 hour post-infection, Delta (SARS-CoV-2 Delta variant [6]): dose-dependent antiviral effect
effect on viral replication, treatment 1 hour pre-infection, Delta (SARS-CoV-2 Delta variant [6]): did not influence the viral replication
effect on viral load, time of addition, Delta (SARS-CoV-2 Delta variant [7]): substantially lower viral load
period of most of the inhibitory effect, Delta (SARS-CoV-2 Delta variant [7]): ≤ 5 h
% inhibition Vero E6 Delta MOI 0.0001 [4]: 2%
% inhibition Vero E6 Delta MOI 0.01 [4]: 18%
IC50 (SARS-CoV-2 A2.5 variant [5]; [9]): 15.3 µM
IC50 (SARS-CoV-2 A2.5 variant [5]; [10]): 5 µg/mL
IC50 (SARS-CoV-2 A2.5 variant [5]; [13]): 19.3 µM
IC90 (SARS-CoV-2 A2.5 variant [5]; [11]): 138 µM
IC90 (SARS-CoV-2 A2.5 variant [5]; [12]): 35.7 µg/mL
effect on viral load, time of addition, A2.5 (SARS-CoV-2 A2.5 variant [8]): substantially lower viral load
period of most of the inhibitory effect, A2.5 (SARS-CoV-2 A2.5 variant [8]): ≤ 3 h

CN1CCN(CCCN2c3ccccc3Sc3ccc(Cl)cc32)CC1 [Prochlorperazine (PCPZ), Prochlorperazine]
% inhibition Calu-3 Delta MOI 0.01 [1]: 0%
% inhibition Calu-3 A2.5 MOI 0.01 [2]: 16%
% inhibition Vero E6 A2.5 MOI 0.01 [3]: 0%
% inhibition Vero E6 Delta MOI 0.0001 [4]: 6%
% inhibition Vero E6 Delta MOI 0.01 [4]: 6%

COc1ccc2nc3cc(Cl)ccc3c(Nc3cc(CN4CCCC4)c(O)c(CN4CCCC4)c3)c2n1 [Pyranoridine (PNO), Pyranoridine]
% inhibition Calu-3 Delta MOI 0.01 [1]: -1%
% inhibition Calu-3 A2.5 MOI 0.01 [2]: 1%
% inhibition Vero E6 A2.5 MOI 0.01 [3]: 0%
antiviral inhibition at MOI = 0.00001 [4]: ≥ 20%
% inhibition Vero E6 Delta MOI 0.0001 [4]: 43%
% inhibition Vero E6 Delta MOI 0.01 [4]: 6%

CCc1nc(N)nc(N)c1-c1ccc(Cl)cc1 [Pyrimethamina (PYR), Pyrimethamina]
% inhibition Calu-3 Delta MOI 0.01 [1]: 3%
% inhibition Calu-3 A2.5 MOI 0.01 [2]: 0%
% inhibition Vero E6 A2.5 MOI 0.01 [3]: 0%
antiviral inhibition at MOI = 0.00001 [4]: ≥ 20%
% inhibition Vero E6 Delta MOI 0.0001 [4]: 34%
% inhibition Vero E6 Delta MOI 0.01 [4]: 9%

NC(=O)c1ncn([C@@H]2O[C@H](CO)[C@@H](O)[C@H]2O)n1 [Ribavirin (RIB), Ribavirin]
% inhibition Calu-3 Delta MOI 0.01 [1]: -6%
% inhibition Calu-3 A2.5 MOI 0.01 [2]: 11%
% inhibition Vero E6 A2.5 MOI 0.01 [3]: 9%
antiviral inhibition at MOI = 0.00001 [4]: ≥ 20%
% inhibition Vero E6 Delta MOI 0.0001 [4]: 44%
% inhibition Vero E6 Delta MOI 0.01 [4]: 8%
